Reference: PMC3763632, “Radiosynthesis and Radiotracer Properties of a 7-(2-[^18F]Fluoroethoxy)-6-methoxypyrrolidinylquinazoline for Imaging of Phosphodiesterase 10A with PET” (Pharmaceuticals, 2012)
pKd: −log10 of the molar value. Where “and” joins values, the source holds several entries; their conditions need not be identical. Equal entries are not always repeated.

Key:
PDE10A [1] = target: T1, PDE10A (Rattus norvegicus, UniProt Q9QYJ6); assay: In vitro autoradiography on sagittal rat brain slices; assay type: binding; conditions: 25 nM [18F]IV
T1 construct: Frozen sagittal brain sections (12 μm) obtained from female SPRD rats (8–10 weeks); from tissue; host or cells: rat brain sections (female SPRD rats)
T1 sequence (Q9QYJ6 1-794): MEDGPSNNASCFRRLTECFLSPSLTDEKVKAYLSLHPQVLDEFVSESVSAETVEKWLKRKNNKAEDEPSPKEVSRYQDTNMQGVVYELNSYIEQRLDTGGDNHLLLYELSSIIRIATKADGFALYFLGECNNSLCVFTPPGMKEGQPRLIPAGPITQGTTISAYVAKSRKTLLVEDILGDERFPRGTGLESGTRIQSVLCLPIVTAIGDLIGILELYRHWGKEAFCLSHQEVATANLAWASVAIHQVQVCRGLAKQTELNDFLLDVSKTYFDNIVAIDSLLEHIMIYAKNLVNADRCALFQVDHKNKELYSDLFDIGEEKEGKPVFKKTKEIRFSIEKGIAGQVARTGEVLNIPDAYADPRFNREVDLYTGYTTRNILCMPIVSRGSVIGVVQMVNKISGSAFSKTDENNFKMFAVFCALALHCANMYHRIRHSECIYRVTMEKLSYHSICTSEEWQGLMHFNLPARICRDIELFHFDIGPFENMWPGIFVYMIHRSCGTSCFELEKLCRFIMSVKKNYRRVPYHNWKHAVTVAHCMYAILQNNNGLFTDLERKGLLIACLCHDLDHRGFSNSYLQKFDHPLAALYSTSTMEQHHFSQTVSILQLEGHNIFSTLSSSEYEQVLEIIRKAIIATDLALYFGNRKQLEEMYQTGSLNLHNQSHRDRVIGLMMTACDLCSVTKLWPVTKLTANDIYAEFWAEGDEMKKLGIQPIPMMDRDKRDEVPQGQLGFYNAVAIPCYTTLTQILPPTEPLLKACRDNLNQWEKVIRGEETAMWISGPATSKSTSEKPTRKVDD
Excerpt: Figure 3 Representative color-coded autoradiographic images of sagittal rat brain slices. […] CP, caudate putamen; NA, nucleus accumbens; OT, olfactory tubercle; Th, thalamus; Hi, hippocampus; SN, substantia nigra; Cb, cerebellum; Co, cortex; OB, olfactory bulb; PN, pontine nuclei.
This pattern corresponds with the immunohistochemical localization of PDE10A in rat brain described in Seeger et al..
Therefore, species-specific patterns of PDE expression have to be considered in the development of PDE10A targeting PET ligands based on the herein reported quinazoline structures. […]
Frozen sagittal brain sections (12 μm) obtained from female SPRD rats (8–10 weeks) were thawed, dried in a stream of cold air, preincubated for 20 min with 50 mM TRIS-HCl, pH 7.4, at room temperature, and dried again. […] After incubation, sections were washed twice for 2 min with 50 mM TRIS-HCl, pH 7.4 at 4 °C, dipped briefly in ice-cold deionized water (5 s), dried in a stream of cold air, and exposed for 17 h to ^18F-sensitive storage phosphor screens, which were analyzed using the BAS-1800 II system (see above).

PDE10A [2] = target: T2, PDE10A (Homo sapiens, UniProt Q9Y233); assay: Homologous competitive binding on membrane homogenates of PDE10A-transfected SF21 cells
T2 construct: purchased Biocrea GmbH, Radebeul, Germany; host or cells: SF21 insect cells (PDE10A-transfected; baculovirus system is mentioned)
T2 sequence (Q9Y233 whole entry, species assumed): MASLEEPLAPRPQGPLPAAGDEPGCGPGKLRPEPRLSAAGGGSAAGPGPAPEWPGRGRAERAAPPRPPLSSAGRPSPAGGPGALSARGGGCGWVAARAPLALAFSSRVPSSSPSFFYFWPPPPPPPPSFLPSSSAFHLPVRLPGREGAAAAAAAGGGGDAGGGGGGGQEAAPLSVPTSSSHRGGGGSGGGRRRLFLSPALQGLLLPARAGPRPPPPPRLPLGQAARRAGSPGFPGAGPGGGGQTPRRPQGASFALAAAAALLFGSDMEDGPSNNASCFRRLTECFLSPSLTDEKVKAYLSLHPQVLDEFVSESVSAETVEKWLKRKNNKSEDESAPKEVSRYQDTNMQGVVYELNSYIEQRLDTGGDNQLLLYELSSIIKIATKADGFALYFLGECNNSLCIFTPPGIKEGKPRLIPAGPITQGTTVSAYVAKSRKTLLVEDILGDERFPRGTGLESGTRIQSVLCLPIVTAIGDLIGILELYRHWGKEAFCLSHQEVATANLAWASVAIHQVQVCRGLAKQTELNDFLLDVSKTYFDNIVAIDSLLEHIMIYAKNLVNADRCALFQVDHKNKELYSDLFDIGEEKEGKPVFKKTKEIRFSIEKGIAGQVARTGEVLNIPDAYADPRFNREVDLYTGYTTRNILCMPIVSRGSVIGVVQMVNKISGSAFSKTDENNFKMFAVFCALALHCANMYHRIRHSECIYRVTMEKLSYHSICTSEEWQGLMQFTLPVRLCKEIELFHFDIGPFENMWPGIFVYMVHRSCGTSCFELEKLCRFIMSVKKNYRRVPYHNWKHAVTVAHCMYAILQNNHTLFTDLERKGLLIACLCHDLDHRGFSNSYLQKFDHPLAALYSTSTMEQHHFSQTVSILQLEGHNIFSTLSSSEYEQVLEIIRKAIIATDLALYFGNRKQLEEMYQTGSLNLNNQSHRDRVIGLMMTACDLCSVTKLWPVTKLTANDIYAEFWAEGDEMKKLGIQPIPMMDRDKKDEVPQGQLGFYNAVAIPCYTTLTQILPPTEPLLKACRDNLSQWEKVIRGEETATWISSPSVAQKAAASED
Procedure: The dissociation constant KD of [^18F]IV was determined in homologous competitive binding experiments by nonlinear regression analysis. Cell membrane homogenates from PDE10A-transfected SF21 cells (100 µg protein/mL incubation volume) were incubated with solutions of six concentrations of IV (working concentration 10 pM–[…]), each spiked with a fixed concentration of [^18F]IV (working concentration 0.05–0.1 nM).
Crude membrane homogenates isolated from PDE10A-transfected SF21 cells were obtained from Biocrea GmbH, Radebeul, Germany. For competitive radioligand displacement experiments (n = 2), the membrane preparations were diluted with incubation buffer (50 mM Tris-HCl, pH 7.4 at room temperature, 5 mM MgCl2) and re-homogenized by passing through a 27-gauge needle. The protein (100 µg) was incubated with 0.05–0.1 nM of [^18F]IV and different concentrations of IV (10 pM–1 µM), diluted from a 10 mM stock in DMSO, at a final volume of 1 mL. Nonspecific binding was determined in the presence of 10 µM of I, and control incubation was carried out accordingly using crude membrane preparations obtained from non-transfected SF21 cells.
Incubation at room temperature was terminated after 120 min by rapid filtration (Brandel 48-channel harvester; Biomedical Research and Development Lab. Inc., Gaithersburg, MD, USA) on Whatman GF/B glass-fiber filters, pre-soaked for 90 min in 0.3% polyethylenimine (Sigma, Deisenhofen, Germany), followed by washing four times with 4 mL of ice-cold wash buffer (50 mM Tris-HCl, pH 7.4 at 4 °C). Filter-bound radioactivity was quantified using a calibrated γ-counter (Wallac WIZARD, Perkin Elmer, Waltham, MA, USA).
Each experiment was carried out in triplicate. The binding parameter IC50 was estimated using iterative non-linear curve fitting. KD of [^18F]IV was estimated directly from homologous competition curve with KD = IC50-[radioligand] as well as from the respective saturation isotherm by nonlinear regression analysis.

[3] = Chemical stability in vitro; assay type: physicochemical; conditions: for native [18F]IV remaining intact: up to 1.5 h
Procedure: Furthermore, the chemical stability of [^18F]IV in vitro under physiological conditions was investigated. […] For formulation and storage, radioligand stability in acetonitrile (98%, 1 h, 80 °C) and in ethanol (98%, 1 h, 80 °C; ≥99%, 1.5 h, 40 °C) was proven.

COc1cc2c(N3CC[C@@H](Oc4cnc5ccccc5n4)C3)ncnc2cc1OCC[18F] [[^18F]IV, (R)-7-(2-[^18F]Fluoroethoxy)-6-methoxy-4-(3-(quinoxalin-2-yloxy)pyrrolidin-1-yl)quinazoline]
binding of [18F]IV on rat brain slices, co-incubation with IV (PDE10A [1]; 10 μM IV, 60 min): saturable binding | inhibition of [18F]IV binding on rat brain slices by MP-10 (PDE10A [1]; 10 μM MP-10, 60 min): not completely inhibited | pKd (PDE10A [2]; mean, n = 2, calculated from homologous competition): 7.85 and ~7.85 | pKd (PDE10A [2]; single experiments (n = 2)): 7.80 and 7.94 | native [18F]IV remaining intact ([3]; 0.01 M TRIS-HCl buffer (pH 7.4 at 21 °C), 40 °C): ≥ 99% | native [18F]IV remaining intact ([3]; 0.9% sodium chloride solution (pH 7.2), 40 °C, radio-TLC): ≥ 99% | radioligand stability ([3]; acetonitrile, 1 h, 80 °C): 98% | radioligand stability ([3]; ethanol, 1 h, 80 °C): 98% | radioligand stability ([3]; ethanol, 1.5 h, 40 °C): ≥ 99% | native [18F]IV remaining intact ([3]; physiological phosphate-saline (pH 7.2), 40 °C): 97%
